Measurements from patent publication US12059458B2, “Peptides and combination of peptides and scaffolds for use in immunotherapy against renal cell carcinoma (RCC) and other cancers” (Immatics Biotechnologies GmbH, priority 2015, dated 2024).

Columns and labels:
[1] = test system: CD8+ T cells of healthy HLA-A*02 donors; test: In vitro immunogenicity: T-cell priming with aAPCs loaded with peptide/MHC complexes and anti-CD28 antibody, pMHC multimer readout; format: cell-based, human; settings: Table 10B
Description: In order to obtain information regarding the immunogenicity of the TUMAPs of the present invention, the inventors performed investigations using an in vitro T-cell priming assay based on repeated stimulations of CD8+ T cells with artificial antigen presenting cells (aAPCs) loaded with peptide/MHC complexes and anti-CD28 antibody.
In order to perform in vitro stimulations by artificial antigen presenting cells loaded with peptide-MHC complex (pMHC) and anti-CD28 antibody, the inventors first isolated CD8+ T cells from fresh HLA-A*02 leukapheresis products via positive selection using CD8 microbeads (Miltenyi Biotec, Bergisch-Gladbach, Germany) of healthy donors obtained from the University clinics Mannheim, Germany, after informed consent.
PBMCs and isolated CD8+ lymphocytes were incubated in T-cell medium (TCM) until use consisting of RPMI-Glutamax (Invitrogen, Karlsruhe, Germany) supplemented with 10% heat inactivated human AB serum (PAN-Biotech, Aidenbach, Germany), 100 U/ml Penicillin/100 μg/ml Streptomycin (Cambrex, Cologne, Germany), 1 mM sodium pyruvate (CC Pro, Oberdorla, Germany), 20 μg/ml Gentamycin (Cambrex). 2.5 ng/ml IL-7 (PromoCell, Heidelberg, Germany) and 10 U/ml IL-2 (Novartis Pharma, Nümberg, Germany) were also added to the TCM at this step.
Generation of pMHC/anti-CD28 coated beads, T-cell stimulations and readout was performed in a highly defined in vitro system using four different pMHC molecules per stimulation condition and 8 different pMHC molecules per readout condition.
The purified co-stimulatory mouse IgG2a anti human CD28 Ab 9.3 (Jung et al., 1987) was chemically biotinylated using Sulfo-N-hydroxysuccinimidobiotin as recommended by the manufacturer (Perbio, Bonn, Germany). Beads used were 5.6 μm diameter streptavidin coated polystyrene particles (Bangs Laboratories, Illinois, USA).
pMHC used for positive and negative control stimulations were A*0201/MLA-001 (peptide […] (SEQ ID NO. 152) from modified Melan-A/MART-1) and A*0201/DDX5-001 ([…] from DDX5 (SEQ ID NO. 153)), respectively.
800.000 beads/200 μl were coated in 96-well plates in the presence of 4×12.5 ng different biotin-pMHC, washed and 600 ng biotin anti-CD28 were added subsequently in a volume of 200 μl. Stimulations were initiated in 96-well plates by co-incubating […] CD8+ T cells with 2×10^5 washed coated beads in 200 μl TCM supplemented with 5 ng/ml IL-12 (PromoCell) for 3 days at 37° C. Half of the medium was then exchanged by fresh TCM supplemented with 80 U/ml IL-2 and incubating was continued for 4 days at 37° C. This stimulation cycle was performed for a total of three times. For the pMHC multimer readout using 8 different pMHC molecules per condition, a two-dimensional combinatorial coding approach was used as previously described (Andersen et al., 2012) with minor modifications encompassing coupling to 5 different fluorochromes. Finally, multimeric analyses were performed by staining the cells with Live/dead near IR dye (Invitrogen, Karlsruhe, Germany), CD8-FITC antibody clone SK1 (BD, Heidelberg, Germany) and fluorescent pMHC multimers. For analysis, a BD LSRII SORP cytometer equipped with appropriate lasers and filters was used. Peptide specific cells were calculated as percentage of total CD8+ cells. Evaluation of multimeric analysis was done using the FlowJo software (Tree Star, Oregon, USA). In vitro priming of specific multimer+ CD8+ lymphocytes was detected by comparing to negative control stimulations.

[2] = molecular target: HLA-A*02:01 (Homo sapiens, UniProt P04439, D140Y/D185E/D98H/E176V/E277Q/G131W/G231S/I119V/I121R/I166T/I218V/L300P/L318F/N151K/N90K/P208A/P217A/Q86G/Q94H/R138H/R169H/T345S); test: MHC binding assay (UV-ligand exchange, beta2m ELISA, peptide exchange yield); settings: binding to HLA-A*02:01 ranged by peptide exchange yield, β2m ELISA
Description: Candidate peptides for T cell based therapies according to the present invention were further tested for their MHC binding capacity (affinity). The individual peptide-MHC complexes were produced by UV-ligand exchange, where a UV-sensitive peptide is cleaved upon UV-irradiation, and exchanged with the peptide of interest as analyzed. Only peptide candidates that can effectively bind and stabilize the peptide-receptive MHC molecules prevent dissociation of the MHC complexes. To determine the yield of the exchange reaction, an ELISA was performed based on the detection of the light chain (β2m) of stabilized MHC complexes. The assay was performed as generally described in Rodenko et al. (Rodenko et al., 2006).
96 well MAXISorp plates (NUNC) were coated over night with 2 ug/ml streptavidin in PBS at room temperature, washed 4× and blocked for 1 h at 37° C. in 2% BSA containing blocking buffer. Refolded HLA-A*02:01/MLA-001 monomers served as standards, covering the range of 15-500 ng/ml. Peptide-MHC monomers of the UV-exchange reaction were diluted 100 fold in blocking buffer. Samples were incubated for 1 h at 37° C., washed four times, incubated with 2 ug/ml HRP conjugated anti-β2m for 1h at 37° C., washed again and detected with TMB solution that is stopped with […]. Absorption was measured at 450 nm. Candidate peptides that show a high exchange yield (preferably higher than 50%, most preferred higher than 75%) are generally preferred for a generation and production of antibodies or fragments thereof, and/or T cell receptors or fragments thereof, as they show sufficient avidity to the MHC molecules and prevent dissociation of the MHC complexes.

Peptide exchange (MHC class I binding score) [2] | Substance | Wells positive [%] [1]
++ (≥20% = ++) | 95 (KLTDVGIATL; listed as Homo sapiens) [compound 95] | ++++ (> = 70% = ++++)
++ (≥20% = ++) | 98 (KIPPVSPSI; listed as Homo sapiens) [compound 98] | ++++ (> = 70% = ++++)
